From patent US20200384188A1, “SYSTEMS, DEVICES, FORMULATIONS AND METHODS FOR CONTROLLED DRUG DELIVERY” (priority 2017, published 2020)
Values joined by “and” are separate entries in the source; they are usually repeats but may differ in a detail not shown here. Equal entries are not always repeated.

Legend:
[1] = test system: male Sprague-Dawley rats; details: rat, in vivo
[2] = test system: rats (Group 1 Sprague-Dawley, Group 4 Han Wister); assay: Randall-Selitto test (Brewers Yeast-inflamed hind paw, analgesy meter); type: in vivo, rat; details: for Force (g) applied to the inflamed (right) paw, individual animals / Force (g) applied to the inflamed (right) paw, mean / % change from baseline, force on inflamed (right) paw / % change from baseline, force on untreated (left) paw / Force (g) applied, Left paw, individual animals / Force (g) applied, Right Paw (inflamed), individual animals / Force (g) applied to the untreated (left) paw, mean: 50 mg/kg sc; for Force (g) applied to the inflamed (right) paw, individual animals: animals R0001-R0006; for Force (g) applied to the inflamed (right) paw, individual animals / Force (g) applied, Left paw, individual animals / Force (g) applied, Right Paw (inflamed), individual animals: 50 mg/kg
From the text: The Randall Selitto test is a tool to assess the response thresholds to mechanical pressure stimulation following induction of a hyperalgesic state by injection of an inflammatory agent and is considered a measure of mechanical hyperalgesia (Randall and Selitto, 1957). This involves application of an increasing force to the surface of the paw until withdrawal or vocalization occurs. The test can produce results similar to decreases on pressure pain thresholds observed in clinical conditions, such as fibromyalgia, myofascial pain, or osteoarthritis (Arendt-Nielsen et al., 2010; Bennett, 2007; Finan et al., 2013; Hsu et al., 2010). Centrally and peripherally acting effects can be detected using this model, for example, opioids increase the mechanical threshold to the normal and inflamed paw, whereas nonsteroidal anti-inflammatory drugs are only effective in the inflamed paw.
(§1) Eighteen male Sprague-Dawley rats were obtained from Charles River, Margate, United Kingdom, and were used for dosing. Animals weighed between 319 and 419 g on the day of dosing. Eight male Han Wister rats were obtained from Charles River, Margate, United Kingdom and used for Group 4. Animals weighed between 381 and 504 g on the day of dosing. The animals were assessed according to Table 1.
(§2) Animals were dosed subcutaneously via a motorized insulin pump.
The threshold of a pain response to increasing pressure was measured using an analgesy meter (Ugo Basile, Italy). The animal was gently held by a competent operator, and the hind paw of the animal was positioned over a convex surface (a cone-shaped pusher). A gradually increasing pressure (g) was applied to the upper surface of the paw. The force was continuously monitored by a pointer moving along a linear scale and was stopped by depression of a foot pedal when the animal struggled. A cut-off value of 300 g was adopted (based on available literature and experience).
Pre-dose Phase: The pressure pain threshold of each animal was tested on two occasions (once in the morning and once in the afternoon). This allowed animals to acclimate to the procedure.
(§3) Day of Dosing: On the day of dosing, each animal was administered a 0.1 mL 20% suspension of Brewers Yeast subcutaneously into the sub-plantar of the right hind paw at approximately 180 minutes prior to ketamine administration. Immediately prior to ketamine administration (Group 4), 15 and 30 minutes and 1, 2, and 4 hours post administration of ketamine, each animal was assessed for a response to increasing pressure on both hind paws (Group 1 used right hind paw, Group 4 used both hind paws), using the analgesy meter. Signs of anesthesia were recorded.

[3] = test system: male Sprague-Dawley rats; assay: Writhing test (acetic acid-induced abdominal spasm); type: in vivo, rat
Experimental: In the abdominal spasm (acetic acid-induced writhing) test, acetic acid is injected into the peritoneal cavity where it directly activates nociceptors and results in an abdominal writhing response. This writhing response is characterized by contraction of abdominal muscles followed by an extension of the hind limbs (Collier et al., 1968). This pain-behavior is considered reflexive and evidence of visceral pain associated with visceral chemoreceptors (Hammond, 1989). […] It is widely accepted that this model can be used as a screening method to determine the effects of drugs on inflammatory induced nociception (Vogel et al., 1997; Chiba et al., 2008). Although it can be used as a screening tool, it is unclear as to which clinical conditions the use of a chemical irritant represents (Gregory et al., 2013).
as §1, §2
At 1 hour post administration of ketamine, each animal was administered a 1 mL intraperitoneal injection of 1% acetic acid. Animals were immediately placed into individual observation chambers, and the number of abdominal spasms elicited over the subsequent 25-minute period was recorded.
Comparisons were made to background data.

[4] = test system: rats; assay: Signs of anesthesia recorded during the rat pain tests; type: in vivo; details: 50 mg/kg sc via insulin pump
Experimental: Signs of anesthesia were recorded.
as §3

[5] = Minipig pharmacokinetics study (BB-1802), single subcutaneous infusion via insulin pump, plasma LC-MS/MS; details: for half-life / Tmax: Gottingen, minipig, plasma, sc; for Tmax: mean Tmax
Experimental: The purpose of this study was to determine the pharmacokinetics of ketamine after a single subcutaneous infusion dose to minipigs.
Dose Administration: In each phase, animals received a single subcutaneous infusion (up to 18 hours) via insulin pump (Medtronic MiniMed Paradigm® Insulin Pump). The infusion pump was programmed in accordance with a Study Specific Procedure, and the infusion was continuously monitored for the duration of the dose. […] The pump was inspected, re-secured to the animal, and the dose continued.
For each phase, blood (approximately 2 mL) was collected via jugular vein catheter into tubes containing K3EDTA from each animal predose and at approximately 0.083, 0.25, 0.5, 1, 2, 4, 8, 9 (Phases 1 through 3 only), 10 (Phases lthrough 3 only), 12, 15 (Phases 4 and 5 only), 18 (Phases 4 and 5 only), 20 (Phases 4 and 5 only), 22 (Phases 4 and 5 only), and 24 hours postdose, with the following exceptions in Phase 3 for Animal 50004 (Group 1 male). […] Times were based on the start of the infusion.
Plasma samples were analyzed for concentrations of ketamine using an established liquid chromatography/mass spectrometry (LC-MS/MS) method.
Noncompartmental analysis (1) was applied to the individual plasma ketamine concentration data for males and females. The following parameters were estimated whenever possible:
Nominal doses and sampling times were used. […] Embedded zeros were excluded from pharmacokinetic analysis.

[6] = test system: Gottingen Minipigs; assay: Minipig animal observations and necropsy; type: in vivo, Gottingen Minipig; details: Animals S0001 and S0004, Group 1 males
From the text: All animals appeared healthy prior to dosing and throughout the duration of the study, with the following observations noted.

[7] = test system: rats; details: 50 mg/kg; cited from earlier work

Structure (SMILES): CNC1(c2ccccc2Cl)CCCCC1=O (centres unmarked) [ketamine]
- Time (s) taken for response, individual animals [1]: 4.2 s (2×) and 5.2 s (3×) and 5.9 s and 5.1 s and 7.7 s and 6.2 s (2×) and 4.4 s and 7.0 s and 7.5 s and 5.5 s and 6.4 s (2×) and 7.4 s (3×) and 6.5 s (2×) and 3.5 s and 5.8 s (3×) and 4.3 s and 4.9 s and 6.1 s and 5.7 s and 7.6 s
- Time (s) taken for response, mean [1]: 5.6 s and 5.9 s and 6.3 s
- group mean reaction time (longest) [1]: 6.3 s
- group mean reaction time (shortest) [1]: 5.6 s
- latency of tail flick, in words [1]: slight increase in latency of tail flick at all post-dose time points
- magnitude of the increase in time taken for pain to be perceived [1]: 1.1 s
- maximum effect, increase in time to tail flick [1]: 21.4%
- Force (g) applied to the inflamed (right) paw, individual animals ([2]; Group 1, 0.25 h): 90 g (2×) and 20 g and 40 g (2×) and 120 g
- Force (g) applied to the inflamed (right) paw, mean ([2]; Group 1, 0.25 h, n=6): 153.3 g
- Force (g) applied to the inflamed (right) paw, individual animals ([2]; Group 1, 0.5 h): 100 g and 130 g and 80 g and 170 g and 120 g and 40 g
- Force (g) applied to the inflamed (right) paw, mean ([2]; Group 1, 0.5 h, n=6): 66.7 g
- Force (g) applied to the inflamed (right) paw, individual animals ([2]; Group 1, 1 h): 130 g and 120 g (2×) and 80 g (2×) and 60 g
- Force (g) applied to the inflamed (right) paw, mean ([2]; Group 1, 1 h, n=6): 106.7 g
- Force (g) applied to the inflamed (right) paw, individual animals ([2]; Group 1, 2 h): 60 g and 110 g and 50 g and 200 g and 120 g and 140 g
- Force (g) applied to the inflamed (right) paw, mean ([2]; Group 1, 2 h, n=6): 98.3 g
- Force (g) applied to the inflamed (right) paw, individual animals ([2]; Group 1, 4 h): 120 g (2×) and 110 g and 140 g and 90 g (2×)
- Force (g) applied to the inflamed (right) paw, mean ([2]; Group 1, 4 h, n=6): 113.3 g
- pressure required to initiate a response, in words ([2]; Group 1, 0.5 to 2 hours post-dose versus the 15 minute time point, majority of animals): increase in pressure required to initiate a response
- % change from baseline, force on inflamed (right) paw ([2]; Group 4, 0.25 h): −5.7%
- % change from baseline, force on untreated (left) paw ([2]; Group 4, 0.25 h): −17.0%
- Force (g) applied, Left paw, individual animals ([2]; Group 4, 0.25 h): 60 g and 100 g and 180 g and 90 g and 80 g and 130 g and 110 g and 30 g
- Force (g) applied, Right Paw (inflamed), individual animals ([2]; Group 4, 0.25 h): 10 g and 30 g and 80 g and 50 g and 40 g and 60 g (2×) and 0 g
- Force (g) applied to the inflamed (right) paw, mean ([2]; Group 4, 0.25 h, n=8): 41.3 g
- Force (g) applied to the untreated (left) paw, mean ([2]; Group 4, 0.25 h, n=8): 97.5 g
- % change from baseline, force on inflamed (right) paw ([2]; Group 4, 0.5 h): 34.3%
- % change from baseline, force on untreated (left) paw ([2]; Group 4, 0.5 h): −9.6%
- Force (g) applied, Left paw, individual animals ([2]; Group 4, 0.5 h): 120 g (2×) and 130 g (2×) and 150 g and 90 g and 70 g and 40 g
- Force (g) applied, Right Paw (inflamed), individual animals ([2]; Group 4, 0.5 h): 40 g (2×) and 50 g and 80 g and 90 g and 70 g and 100 g and 0 g
- Force (g) applied to the inflamed (right) paw, mean ([2]; Group 4, 0.5 h, n=8): 58.8 g
- Force (g) applied to the untreated (left) paw, mean ([2]; Group 4, 0.5 h, n=8): 106.3 g
- % change from baseline, force on inflamed (right) paw ([2]; Group 4, 1 h): 65.7%
- % change from baseline, force on untreated (left) paw ([2]; Group 4, 1 h): −10.6%
- Force (g) applied, Left paw, individual animals ([2]; Group 4, 1 h): 80 g (3×) and 160 g and 100 g (2×) and 200 g and 40 g
- Force (g) applied, Right Paw (inflamed), individual animals ([2]; Group 4, 1 h): 80 g and 60 g and 140 g and 40 g and 70 g (2×) and 90 g and 30 g
- Force (g) applied to the inflamed (right) paw, mean ([2]; Group 4, 1 h, n=8): 72.5 g
- Force (g) applied to the untreated (left) paw, mean ([2]; Group 4, 1 h, n=8): 105.0 g
- % change from baseline, force on inflamed (right) paw ([2]; Group 4, 2 h): 165.7%
- % change from baseline, force on untreated (left) paw ([2]; Group 4, 2 h): −24.5%
- Force (g) applied, Left paw, individual animals ([2]; Group 4, 2 h): 100 g (2×) and 70 g and 130 g and 80 g (2×) and 90 g and 60 g
- Force (g) applied, Right Paw (inflamed), individual animals ([2]; Group 4, 2 h): 180 g and 80 g (2×) and 240 g and 70 g (2×) and 120 g and 90 g
- Force (g) applied to the inflamed (right) paw, mean ([2]; Group 4, 2 h, n=8): 116.3 g
- Force (g) applied to the untreated (left) paw, mean ([2]; Group 4, 2 h, n=8): 88.8 g
- % change from baseline, force on inflamed (right) paw ([2]; Group 4, 4 h): 38.45%
- % change from baseline, force on untreated (left) paw ([2]; Group 4, 4 h): 14.9%
- Force (g) applied, Left paw, individual animals ([2]; Group 4, 4 h): 130 g (2×) and 110 g (3×) and 220 g and 90 g and 180 g
- Force (g) applied, Right Paw (inflamed), individual animals ([2]; Group 4, 4 h): 60 g and 90 g and 170 g and 100 g (2×) and 80 g and 150 g and 70 g
- Force (g) applied to the inflamed (right) paw, mean ([2]; Group 4, 4 h, n=8): 102.5 g
- Force (g) applied to the untreated (left) paw, mean ([2]; Group 4, 4 h, n=8): 135.0 g
- pressure required in the treated (right) paw at 15 minutes post-dose, in words ([2]; Group 4, 15 minutes post-dose): slight decrease
- pressure required to initiate a response in the treated (right) paw, in words ([2]; Group 4, between 0.5 and 2 hours post-dose compared to pre-dose, time dependent): increase in pressure required to initiate a response
- force applied to the untreated (left) paw, in words ([2]; Group 4, throughout the data collection): remained comparable to pre-dose
- Number of acetic acid-induced Abdominal Spasms, individual animals ([3]; 50 mg/kg sc, 1 hour after ketamine, animals R0201-R0206): 0 and 4 and 3 and 5 and 1 and 8
- reduction of elicited spasms from baseline values ([3]; ketamine infusion versus baseline of 29/25 min): 86%
- number of elicited spasms, average ([3]; ketamine infusion, baseline 29/25 min): 4 /25 min
- Signs of anesthesia [4]: reduced righting reflex, body tone, and ataxia up to 1 hour post-dose
- half-life ([5]; 8 mg/kg): 5.76 h
- half-life ([5]; 12 mg/kg): 5 h
- half-life ([5]; 18 mg/kg): 3.12 h
- mean concentration values measurable through (post the start of infusion) ([5]; Phase 1): 12 h
- mean Css ([5]; Phase 5: 18 mg/kg, 1 mg/kg/hr, 18-hour SC infusion): 700 ng/mL
- steady-state, in words ([5]; Phases 1 through 4): did not appear to reach a steady-state
- mean concentration values measurable through (post the start of infusion) ([5]; Phases 3 through 5): 24 h
- time to detectible plasma ketamine levels after initiating subcutaneous infusion ([5]; all animals): ≤ 5 min
- exposure to ketamine against dose level ([5]; dose level from 4 to 18 mg/kg): generally increased with the increase in dose level
- Tmax ([5]; female, 18 mg/kg, Phases 4 and 5: 18 mg/kg, 1 mg/kg/hr, 18-hour SC infusion, female): 13.5 h
- Tmax ([5]; male, 8 mg/kg, Phase 2: 8 mg/kg, 1 mg/kg/hr, 8-hour SC infusion, males): 4.5 h
- Tmax ([5]; male, 12 mg/kg, Phase 3: 12 mg/kg, 1.5 mg/kg/hr, 8-hour SC infusion, males): 2.04 h
- dose proportionality of the increases in mean Cmax and AUC0-24 ([5]; males, dose level from 4 to 8 mg/kg): less than dose proportional
- dose proportionality of the increases in mean Cmax and AUC0-24 ([5]; males, dose level from 8 to 12 mg/kg): greater than dose proportional
- relation of adverse effects (euthanized animals, necropsy) to the test article [6]: not test article related
- relief of evoked pain 24 hours after administration [7]: no relief of evoked pain
